Results on 1 compound are retold here after US20060128654A1, “Pharmaceutical formulation of cytidine analogs and derivatives” (priority 2004, published 2006).

This data set in a line: Chemical stability of decitabine in cyclodextrin solutions (HPLC potency, % of total peak areas at 220 nm). The format is physicochemical. The protocol: The chemical stability of decitabine in the cyclodextrin solutions and in the phophate buffer as prepared above was determined. The initial decitabine concentration for all the solutions was 17-18 mg/mL at the beginning of the experiment at 2-8° C.; 9-10 mg/mL at the beginning of the experiment at 25° C. Decitabine potency was assayed by a HPLC method, and expressed as a percentage of total peak areas at 220 nm.

For `Nc1ncn([C@H]2C[C@H](O)[C@@H](CO)O2)c(=O)n1` [decitabine, 5-aza-2′-deoxycytidine], the “Stability in aqueous solution with cyclodextrins as excipients” value runs as follows: (2-8° C., initial 17-18 mg/mL, FIG. 1) “dramatically improve the stability”; (25° C., initial 9-10 mg/mL, FIG. 2) “dramatically improve the stability”. Moreover, the “Stabilization effect at various HPBCD concentrations” value (25° C., FIG. 3) is “concentration dependent”.
